We go through 21 molecules from US5773424A, “Treatment of toxoplasmosis” (priority 1994, dated 1998).

One may read the Ki as a dissociation constant, usually derived from enzyme kinetics or from competition with a known ligand. In general, inhibition refers to the share of the control response that was lost under treatment.

Read-outs that look alike come from different tables or passages of the source.

Series [1] in a line: Toxicity of compounds, MTT assay. The format is cell-based, human. The conditions noted are these: human, foreskin fibroblasts, MTT, 48 hours, read-out: percent survival of uninfected human fibroblasts. As to the method: Toxicity of compounds. Toxicity of the different doses of the various analogues were performed at least in triplicates, using a modification of the Microculture Tetrazolium (MTT) assay and uninfected monolayers of human foreskin fibroblasts. Briefly, confluent cells were incubated for at least 24 hours in the 96-well flat bottom microtiterplates (~10^5 /200 μL/well) and incubated at 37° C. in 5% CO2, 95% air to allow the cells to attach. The medium was then replaced with 200 μL of fresh medium. […] The cultures were then incubated for 48 hours, after which 50 μL of sterile MTT solution (2 mg/1 mL PBS) was added to each well. MTT solution was sterilized by filtration through 0.22 μm filters (Costar, Cambridge, Mass.). After 4 hours incubation, the medium was removed and 100 μL of dimethylsulfoxide (DMSO) was added to each well and the plates were shaken gently for 2-3 minutes to dissolve the formed formazan crystals. The absorbance was measured at 540 nm, using a computerized microtiterplate reader (Themomax, Molecular Division)
For orientation: Formazan colour is commonly taken as a measure of viable cells.

Series [2] relates to Toxoplasma gondii grown in human fibroblasts. Kind of series: Incorporation of radiolabeled uracil (parasite survival). Type of series: cell-based. The conditions noted are these: Toxoplasma gondii, Fibroblast, read-out: percent survival of Toxoplasma gondii grown in human fibroblasts. As to the method:
Incorporation of Radiolabeled Uracil. […] Uptake and incorporation of radiolabeled uracil into nucleic acids of T. gondii were carried out, at least in triplicates, in tissue culture, using monolayers of human foreskin fibroblasts infected with T. gondii. The fibroblasts were cultured in no more than 30 passages in Dulbecco's modified Eagle medium, containing 100 units/mL penicillin G and 100 μg/mL streptomycin sulfate, and 10% FBS, pH 7.2. Briefly, confluent cells (4-5 day incubation) were cultured for 24 hours in the 24-well flat bottom microtiterplates (~5×10^5 /1 mL/well) and incubated at 37° C. in 5% CO2, 95% air to allow the cells to attach. The medium was then removed and the cells were infected with isolated T. gondii in medium with 3% FBS (1 parasite/cell). After 1 hour incubation, the cultures were washed with media with 10% FBS to remove extracellular parasites. FBS was maintained at a final concentration of 10%. […] After an additional 18 hours incubation, the medium was replaced with 1 mL drug free media containing […] (2 μCi/mL) and incubated for another 6 hours, after which the media was removed. The fibroblasts were released from the wells by trypsinization with the addition of 200 μL trypsin/EDTA (2.5×) to each well. After 10 minutes incubation, 1 mL of ice cold 10% trichloroacetic acid (TCA) was added to each well. The plates were then placed on a shaker to insure the detachment of the cells. The suspended contents of each well were filtered through GF/A 2.4 cm glass microfiber filters (Whatman, Hillsboro, Oreg.), which were prewashed each with 1 mL double distilled H2 O and dried. After filtration, the filters were washed with 10 mL methanol, left to dry, and then placed in scintillation vials containing 5 mL of Econo-Safe scintillation fluor (Research Products International Corp., Mount Prospect, Ill.), and radioactivity was counted using an LS5801 Beckman scintillation counter.

For series [3], the target named is T. gondii adenosine kinase (Toxoplasma gondii, UniProt Q9TVW2). Kind of series: biochemical. The conditions noted are these: for inhibition at 1000 µM: read-out: Inhibition of T. gondii adenosine kinase; for Decrease in binding to T. gondii adenosine kinase: relative to reference compound adenosine. As to the method: Preparation of cytosol extracts. For the structure activity relationships studies, approximately 5×10^8 T. gondii were suspended in 1.2 ml of 50 mM N-2-hydroxyethylpiperazine-N'-2-ethanesulfonic acid (HEPES)-Cl (pH 8.0)/1 mM dithiothreitol and homogenized for 30 seconds at setting 10, using a Brinnmann Instruments Polytron homogenizer fitted with a PTA 7K1 probe. The homogenate was then centrifuged at approximately 116,000 g for 1 hour at 5° and the supernatant (cytosol extract) collected and used as the enzyme source. Fresh cytosol extracts were prepared for each experiment.
Sequence of T. gondii adenosine kinase (Q9TVW2 whole entry): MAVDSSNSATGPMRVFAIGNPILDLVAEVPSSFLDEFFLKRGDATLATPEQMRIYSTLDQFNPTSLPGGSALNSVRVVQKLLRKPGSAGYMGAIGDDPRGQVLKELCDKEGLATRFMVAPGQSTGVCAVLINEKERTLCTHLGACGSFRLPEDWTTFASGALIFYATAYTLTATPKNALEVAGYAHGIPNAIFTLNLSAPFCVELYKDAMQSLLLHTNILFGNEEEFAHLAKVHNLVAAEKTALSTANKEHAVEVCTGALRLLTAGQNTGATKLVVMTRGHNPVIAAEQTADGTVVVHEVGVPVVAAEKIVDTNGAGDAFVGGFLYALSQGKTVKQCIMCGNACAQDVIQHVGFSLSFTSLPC
Adenosine kinase assay. T. gondii adenosine kinase activity was measured by following the formation of [^14 C]AMP from [^14 C]adenosine and ATP. […] Therefore, the standard reaction mixture contained 50 mM HEPES-Cl (pH 8.0), 1 mM dithiothreitol, 5 μM [8-^14 C]adenosine (45 Ci/mol), 0.5 mM ATP, 0.5 mM MgCl2, 25 μM (+)-EHNA or 100 μM (±)-EHNA,10-30 μl of cytosol extract (approximately 3-10 μg of protein), and either 0, 0.1, 0.25, 0.5 or 1.0 mM of the compound to be tested, in a final volume of 150 μl.
Reactions were started by the addition of [8-^14 C]adenosine, incubated at 37° for 10 minutes and terminated by placing the reaction tubes in a boiling water bath for 2 minutes. Precipitated proteins were removed by centrifugation in a microcentrifuge (approximately 13,000 g) for 5 minutes, and a 15 μl aliquot of the resulting supernatant was mixed with 5 μl of a solution containing 10 mM each of AMP and adenosine. This mixture was then spotted on silica gel thin layer chromatography plates which were developed with a mixture of chloroform/methanol/acetic acid (16:3:1). […] The substrate and product spots (which accounted for all of the radioactivity on the plates) were identified by UV quenching, cut out, and the radioactivity quantitated by liquid scintillation counting in 20 ml of Scintilene, using a Packard 460 scintillation counter. […] Enzyme velocity was calculated by multiplying the fraction of AMP formed from adenosine times the amount of adenosine in the assay, and dividing by the incubation time.
Determination and significance of AppKi values. AppKi values were used to determine the relative degree of binding of compounds to adenosine kinase as compared to adenosine. AppKi values were estimated from Dixon plots of the data (1/.nu. versus [I]), using a computer program with least squares fitting according to the general principles of Cleland (Cleland, W W, The statistical analysis of enzyme kinetic data. Adv. Enzymol. 29:1-32, 1967). The program was written by Dr. Sungman Cha (Brown University, Providence, R.I.) and modified to fit IBM BASIC by Dr. Fardos N. M. Naguib. […] It should be noted, however, that the type of inhibition (i.e., competitive, noncompetitive, or uncompetitive) produced by the compounds was not determined, nor were the compounds evaluated as substrates for T. gondii adenosine kinase.

[4] abbreviates: 5 μM, [5,6-3H]uracil incorporation.
Setting [5] is: 10 μM, [5,6-3H]uracil incorporation.
[6] abbreviates: 25 μM, [5,6-3H]uracil incorporation.
[7] abbreviates: 50 μM, [5,6-3H]uracil incorporation.
[8] abbreviates: AppKi for inhibition of T. gondii adenosine kinase, 5 μM adenosine, ± range, at least two estimations.

As to `[N-]=[N+]=Nc1ccc(CNc2ncnc3c2ncn3[C@@H]2O[C@H](CO)[C@@H](O)[C@H]2O)cc1`, in series [1], the viability at 48 h, 5 µM is 97.3%; the viability at 48 h, 10 µM was 90.3%; the viability at 48 h, 25 µM was 88.9%; the viability at 48 h, 50 µM was 81.5%. Besides, in series [2] (setting [4]), the activity at 5 µM is 36.9%. The activity at 10 µM in series [2] (setting [5]) was determined as 17%. Moreover, in series [2] (setting [6]), the activity at 25 µM amounted to 15.1%. Further, the activity at 50 µM in series [2] (setting [7]) worked out at 24.5%.

Turning to `O=[N+]([O-])c1ccc(CNc2ncnc3c2ncn3[C@@H]2O[C@H](CO)[C@@H](O)[C@H]2O)cc1`, in series [1], the viability at 48 h, 5 µM came out at 104%; the viability at 48 h, 10 µM amounted to 102%; the viability at 48 h, 25 µM was 92.3%; the viability at 48 h, 50 µM came out at 107%. Also, the activity at 5 µM in series [2] (setting [4]) was determined as 35.9%. In addition, the activity at 10 µM in series [2] (setting [5]) came out at 27.6%. Besides, in series [2] (setting [6]), the activity at 25 µM was 21.6%. In addition, the activity at 50 µM in series [2] (setting [7]) was 8.4%.

As to `O=[N+]([O-])c1ccc(C[Se]c2ncnc3c2ncn3[C@@H]2O[C@H](CO)[C@@H](O)[C@H]2O)cc1` [Compound 24, 6-(p-Nitrobenzyl)selenopurine riboside], in series [1], the viability at 48 h, 5 µM is 89.3%; the viability at 48 h, 10 µM was found to be 90.1%; the viability at 48 h, 25 µM came out at 63.4%; the viability at 48 h, 50 µM worked out at 39.6%. For the same molecule, in series [2], the activity at 5 µM turned out to be 67.8%, the activity at 10 µM was determined as 3.03%, the activity at 25 µM turned out to be 0% and the activity at 50 µM turned out to be 0%.

In series [3], `COc1ccc(C2OC3C(CO)OC(n4cnc5c(N)ncnc54)C3O2)cc1` (stereo not drawn) [Compound 108, 2',3'-O-p-Anisylidene adenosine] yielded a Ki of 1400 µM.

For `CC(=O)O[C@@H]1[C@H](OC(C)=O)[C@@H](CO)O[C@H]1n1cnc2c(N)ncnc21` [Compound 109, 2',3'-Di-O-acetyladenosine], the inhibition at 1000 µM in series [3] was below 10%.

Consider `CC(=O)OC[C@H]1O[C@@H](n2cnc3c(N)ncnc32)[C@H](O)[C@@H]1OC(C)=O` [Compound 110, 3',5'-Di-O-acetyladenosine], for which the inhibition at 1000 µM in series [3] is below 10%.

Turning to `Nc1ncnc2c1ncn2[C@@H]1O[C@](F)(COS(N)(=O)=O)[C@@H](O)[C@H]1O` [Compound 111, 4'-Flouro-5'-O-sulfamoyladenosine (nucleocidin)], the inhibitory constant (Ki) in series [3] (setting [8]) was 850 ± 220 µM.

Take `Nc1ncnc2c1ncn2[C@@H]1C=C(CO)[C@@H](O)[C@H]1O` [Compound 114, Neplanocin A]: in series [3], the Ki is 37 ± 10 µM and the “Decrease in binding to T. gondii adenosine kinase” value was found to be 5.3 fold.

On to `Nc1ncnc2nc[nH]c12` [Compound 115, Adenine], for which, in series [3], the Ki was found to be 6500 µM and the “Decrease in binding to T. gondii adenosine kinase” value was found to be 930 fold.

Molecule `Cn1cnc2c(ncn2[C@H]2C[C@H](O)[C@@H](CO)O2)c1=N` [Compound 116, 1-Methyl-2'-deoxyadenosine] had a Ki in series [3] of 8000 µM.

As to `CNc1ncnc2c1ncn2[C@H]1C[C@H](O)[C@@H](CO)O1` [Compound 117, N^6 -Methyl-2'-deoxyadenosine], in series [3], the inhibition at 1000 µM is below 10%.

The molecule `O=C(Nc1ncnc2c1ncn2[C@H]1C[C@H](O)[C@@H](CO)O1)c1ccccc1` [Compound 118, N^6 -Benzoyl-2'-deoxyadenosine] displayed a Ki in series [3] of 590 ± 20 µM.

Regarding `CN(C)c1ncnc2c1ncn2[C@@H]1O[C@H](CO)[C@@H](N)[C@H]1O` [Compound 119, N^6 -Dimethyl-3'-amino-3'-deoxyadenosine], the Ki in series [3] (setting [8]) was 540 ± 80 µM.

In the case of `NC(=O)c1cn([C@@H]2O[C@H](CO)C[C@H]2O)c2ncnc(N)c12` [Compound 120, 7-Deaza-7-carboxamido-3'-deoxyadenosine (3'-Deoxysangivamycin)], in series [3] (setting [8]), the Ki was 110 ± 20 µM. Moreover, the “Reduction of binding to T. gondii adenosine kinase” value in series [3] (relative to sangivamycin) was 2 fold.

Consider `Nc1nc2c(ncn2[C@@H]2O[C@H](CO)[C@@H](O)[C@H]2F)c(=O)[nH]1` [Compound 121, 2'-Fluoro-2'-deoxyguanosine], for which the inhibition at 1000 µM in series [3] is below 10%.

With `CC1(C)O[C@@H]2[C@H](O1)[C@@H](CO)O[C@H]2n1cnc2c(=S)[nH]cnc21` [Compound 122, 2',3'-O-Isopropylidene-6-mercaptopurine riboside], the inhibition constant (Ki) in series [3] was 3900 µM.

With `NC(=O)c1ncn([C@@H]2O[C@H](CO)[C@@H](O)[C@H]2O)c1N` [Compound 123, 5'-Aminoimidazole-4-carboxamide riboside], in series [3], the Ki is 2400 µM.

In series [3], `COc1ccc(C[C@H](N)C(=O)N[C@H]2[C@@H](O)[C@H](n3cnc4c(N(C)C)ncnc43)O[C@@H]2CO)cc1` [Compound 124, 3'(α-Amino-p-methoxyhydrocinnamamido)-3'-deoxy-N^6-dimethyladenosine (Puromycin)] displayed an inhibition constant (Ki) of 1300 µM.

In the case of `Nc1ncnc(NC2C=C(CO)C(O)C2O)c1[N+](=O)[O-]` (stereo not drawn) [Compound 125, 4-(3-Hydroxymethyl-4,5-dihydroxy-2-cyclopenten-1-yl)amino-5-nitro-6-aminopyrimidine], the inhibition at 1000 µM in series [3] is below 10%.

For `O=c1[nH]cnc(NC2C=C(CO)C(O)C2O)c1[N+](=O)[O-]` (stereo not drawn) [Compound 126, 4-(3-Hydroxymethyl-4,5-dihydroxy-2-cyclopenten-1-yl)amino-1,6-dihydro-5-nitro-6-oxopyrimidine], in series [3], the inhibition at 1000 µM was below 10%.

In series [3], `Nc1nc(NC2C=C(CO)C(O)C2O)c([N+](=O)[O-])c(=O)[nH]1` (stereo not drawn) [Compound 127, 2-Amino-4-(3-hydroxymethyl-4,5-dihydroxy-2-cyclopenten-1-yl)aminto-1,6-dihydro-5-nitro-6-oxopyrimidine] came in with an inhibition constant Ki of 940 ± 110 µM.
